Read-outs that look alike come from different tables or passages of the source.
Key:
[1] = tested on: SMCs (human aortic smooth muscle cells); experiment: Cell cytotoxicity, colorimetric MTT assay
Protocol: SMCs (human aortic smooth muscle cells, Cambrex, USA) were cultured in SmGM-2 BulletKit (Cambex, USA) medium containing 10% FBS (Cambrex, USA), with 100× antibiotics (Cambex, USA) added thereto, and subcultured by using 1×trypsin-EDTA (Gibco BRL, USA) with maintaining the condition of 37° C., 5% CO2.
Before confirming whether ginsenoside and red ginseng extract affect the growth of muscle cell, the cell cytotoxicity was determined as the effect of cell cytotoxicity induced by ginsenosides Rk1, Rg3, and Rg5, red ginseng extract, and the present composition in muscle cell.
The cell cytotoxicity to the sample was determined by colorimetric MTT assay (Scudiero D. A. et al., Cancer Res., 48:4827-4833, 1988). That is, the muscle cell was plated to 96 wells microtiter tissue culture plate (Falcon) by 1×10^4 cells/ml, and then each well was treated with the sample, cultured for a certain period of time, treated with MTT sample, and melted with solubilization solution when formazan was formed, and the absorbance was determined at 540 nm.

[2] = tested on: SMCs (human aortic smooth muscle cells); experiment: Cell proliferation ELISA BrdU assay; assay type: cell-based; settings: for inhibition at 5 µg/mL: Homo sapiens, at the concentration of 5 μg/ml, FIGS. 3 and 4, read-out: inhibition of the growth of muscle cell; for inhibition of the growth of muscle cell (in words): absorbance 450 nm, FIGS. 3 and 4
Protocol: To determine the effects of cell proliferation by the sample, Cell proliferation ELISA BrdU assay kit (Roche, USA) was purchased and used. Cells were put into 96 wells plate, treated with the sample after cultivation, and cultured for a certain period of time. At a certain point of time, BrdU labeling solution was added into the cells, which in turn were reacted at 37° C., in 5% CO2 for 2 hr. Then, FixDenat was added thereto, and the mixture was reacted at the room temperature for 30 min. And, Anti-BrdU-POD working solution was added thereto, and the mixture was reacted at the room temperature for 1 hr and 30 min. Afterwards, substrate solution was added thereto, and the mixture was reacted at the room temperature for 20 min. The reaction was stopped by using sulphuric acid, and then the absorbance was determined at 450 nm.

[3] = MTT, absorbance 540 nm, proper concentration, FIGS. 1 and 2

| SMILES | cell cytotoxicity in muscle cell [1, 3] | inhibition at 5 µg/mL [2] [%] | inhibition of the growth of muscle cell (in words) [2] | cell cytotoxicity in muscle cell [1] |
| --- | --- | --- | --- | --- |
| CC(C)=CC/C=C(/C)C1CCC2(C)C1C(O)CC1C3(C)CCC(OC4OC(CO)C(O)C(O)C4OC4OC(CO)C(O)C(O)C4O)C(C)(C)C3CCC12C (centres unmarked) [Rg5, ginsenoside Rg5] | no cell cytotoxicity was found | 50 | inhibited the growth of muscle cell | – |
| CC(C)=CCC[C@](C)(O)[C@H]1CC[C@]2(C)[C@@H]1[C@H](O)C[C@@H]1[C@@]3(C)CC[C@H](O[C@@H]4O[C@H](CO)[C@@H](O)[C@H](O)[C@H]4O[C@@H]4O[C@H](CO)[C@@H](O)[C@H](O)[C@H]4O)C(C)(C)[C@@H]3CC[C@]12C [Rg3, ginsenoside Rg3] | – | 50 | inhibited the growth of muscle cell | no cell cytotoxicity was found |
| C=C(CCC=C(C)C)C1CCC2(C)C1C(O)CC1C3(C)CCC(OC4OC(CO)C(O)C(O)C4OC4OC(CO)C(O)C(O)C4O)C(C)(C)C3CCC12C (centres unmarked) [Rk1, ginsenoside Rk1] | no cell cytotoxicity was found | – | inhibited the growth of muscle cell | – |

— patent US20080311169A1, “Composition Comprising Ginsenosides for Treating or Preventing Angiostenosis and Restenosis” (priority 2004, published 2008)
